Reference: BindingDB's records for doi:10.1016/j.bmcl.2003.11.074 (Kaohsiung Medical University, 2004)

Key:
[1] = Inhibitory effect of compound on the release of Beta-glucuronidase in rat neutrophils stimulated with fMLP/CB
Lysozyme C-1 = target: T1, Lysozyme C-1 (Rattus norvegicus, UniProt P00697); assay: ChEBML_100187
T1 sequence (P00697 whole entry): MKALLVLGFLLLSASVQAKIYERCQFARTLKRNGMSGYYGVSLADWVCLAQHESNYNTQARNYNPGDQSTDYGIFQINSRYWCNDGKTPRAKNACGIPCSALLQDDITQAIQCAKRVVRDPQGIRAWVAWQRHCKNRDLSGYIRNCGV
Excerpt: Inhibitory effect of compound on the release of lysozyme in rat neutrophils stimulated with fMLP/CB

| IC50 [1] [µM] | IC50 (Lysozyme C-1) [µM] | Structure (SMILES) |
| --- | --- | --- |
|  | 9.7 | O=c1c(-c2ccc(O)cc2O)coc2cc(O)cc(O)c12 [3-(2,4-Dihydroxy-phenyl)-5,7-dihydroxy-chromen-4-one] |
| > 30 | > 30 | COc1cc(O)ccc1-c1coc2cc(O)cc(O)c2c1=O [5,7-Dihydroxy-3-(4-hydroxy-2-methoxy-phenyl)-chromen-4-one] |

Further lines, the molecule ahead of its results:

| Structure (SMILES) | IC50 [1] [µM] | IC50 (Lysozyme C-1) [µM] |
| --- | --- | --- |
| O=c1c(O)c(-c2ccc(O)cc2)oc2cc(OC3O[C@H](CO)[C@@H](O)[C@H](O)[C@H]3O)cc(O)c12 (stereo not given in full) | > 30 | > 30 |
| CN1CCN(CCCN2c3ccccc3Sc3ccc(C(F)(F)F)cc32)CC1 |  | 9 |
| C[C@](O)(CO)c1cc2c3c(ccc2o1)[C@@H]1COc2cc(O)ccc2[C@@H]1O3 [2-((11bR,12R)-9-Hydroxy-5b,11b-dihydro-6H-3,7,12-trioxa-benzo[a]cyclopenta[i]fluoren-2-yl)-propane-1,2-diol] | > 30 | > 30 |
| O=c1cc(-c2ccc(O)cc2)oc2cc(O)ccc12 [7-hydroxy-2-(4-hydroxyphenyl)-4H-chromen-4-one] |  | > 30 |
| O=c1cc(-c2ccc(O)cc2)oc2cc(O)cc(O)c12 [Naringenin, 18] |  | 17.7 |
